These results are taken from US10731216B2, “Methods and compositions for biomarkers of depression and pharmacoresponse” (priority 2014, dated 2020).

“Also recorded” adds a separate entry of the source. Read-outs that look alike come from different tables or passages of the source. Bounds are passed on as bounds.

Series [1] relates to C57Bl/6 mice. In words: Tail-suspension test (TST). The series is classed as in vivo, mouse. The following applies: prenatal DEX exposure; mice aged 12 mo. Here is the method: The delivery day was recorded as postnatal day (PND) 0. The litters were culled to 4 pups/litter at PND3. The pups were weighed at PND3, 7, 14, and 21. At weaning (PND21), the mice were implanted subcutaneously with sterile radio-frequency identification (RFID) tags (Trovan Unique 100A, Trovan Ltd., UK) under brief isoflurane anesthesia. The transponders allowed unambiguous identification of animals and were also used for monitoring the activity in homecage environment. After implantation, the pups were redistributed to new cages so that each cage would house a maximum of 5 mice originating from different litters, and the distribution was maintained throughout the study. The mice were kept in an animal facility under 12 h:12 h light-dark (LD) cycle (light intensity 50 lx; light on at 6 a.m.) at constant temperature (22±1° C.) and humidity (50%±5%). The circadian zeitgeber (“time-giver”) time (ZT) 0 corresponds to the subjective sunrise, i.e., the onset of the light phase.
For TST, the mice were allowed to acclimatize in the testing room for at least 30 min before the experiment. The mice were suspended by the tail 15 cm above the table (using adhesive tape placed approx. 2 cm from the base of the tail). Soft padding was provided in order to prevent injuries in case the animal escaped or fell down because of tape failure. After 6 min, the animal were released and placed in the homecage. […]

The next series concerns BMAL1, PER1 and PER2. Kind of series: Clock gene mRNA expression in primary human fibroblasts after DEX synchronisation (qPCR). The series is classed as cell-based. The following applies: 1 μM DEX; fibroblasts from healthy subjects; 6-36 h after synchronisation. Here is the method: A skin biopsy (about 5×2 mm) was collected from the internal aspect of the arm under sterile conditions after local anesthesia using EMLA patches (AstraZeneca, Sodertalje, Sweden). The wound was then covered with a sterile patch, and a small scar is formed typically within […]. The tissue sample was quickly transferred to ice-cold HBSS (Life Technologies Europe BV, Stockholm, Sweden) and minced with a sterile razor blade into Collagenase (Type XI-S) (Sigma-Aldrich, Sweden) (30 min at 37° C.). After digestion, 3 ml of DMEM Medium (Life Technologies) supplemented with 10 mM Hepes buffer, sodium pyruvate, non-essential amino acid mixture, glutamax, 20% Fetal Bovine Serum, and 1% Penicillin/Streptomycin (all supplements were from Life Technologies) was added to a 6 cm plate and the samples were incubated at 37° C. until the fibroblasts reached confluence (typically 3-4 weeks). The confluent fibroblast cultures were passaged (0.05% Trypsin-EDTA; Invitrogen) then plated in 12 multi-well plates at a density of at least 50 k/cm^2 in the same medium as used above. […] The cells were collected between 6 and 36 h after synchronisation. The relative mRNA expression of BMAL1, PER1 and PER2 (Table 2: SEQ ID NO 19 and 20) was assessed by qPCR with HP RT (Table 2: SEQ ID NO 13 and 14) as housekeeping gene. The qPCR procedure is described in Example 1.
Background: Quantitative PCR measures a nucleic acid by following its amplification.

The nature of series [2]: Corticosterone metabolites in feces. The series is classed as in vivo, mouse. The conditions noted are these: prenatal DEX exposure, 12 mo. The protocol: The circadian pattern of GC secretion at 12 mo was investigated using a minimally invasive approach. To this end, spontaneous fecal boli were collected between ZT1-2 and ZT12-14 (i.e., immediately after the transition between the light and dark phases of the LD cycle). The feces were collected in sterile Eppendorf tubes and stored at −80° C. until further processing. Samples from each mouse were collected on two occasions (7 day interval between samplings) and the measurements for each mouse were averaged before analysing the differences across the LD cycle. The concentration of corticosterone metabolites in dry fecal extracts was measured by enzyme immunoassay according to manufacturer's instructions (DetectX™, Arbor Assays, Ann Arbor, […]., USA).

Another series concerns Bmal1. In words: Bmal1 expression in primary fibroblast cultures from control and DEX-exposed mice (qPCR). The conditions noted are these: fibroblasts from prenatally DEX-exposed mice aged 6 mo; synchronised with 1 μM DEX. The series is classed as cell-based, mouse. Here is the method: (§1) Tissue samples (˜0.25 cm^2) were harvested from the ear of adult (6 mo) control and DEX-exposed mice under terminal anesthesia. The tissue was rinsed in Hank's Balanced Salt Solution (HBSS) (Life Technologies Europe BV, Stockholm, Sweden), then minced with sterile razor blade into Collagenase (Type XI-S) (Sigma-Aldrich, Sweden) (30 min at 37° C.). After digestion, 3 ml of DMEM Medium (Life Technologies) supplemented with 10% Fetal Bovine Serum and 1% Penicillin/Streptomycin (Life Technologies) was added to a 6 cm plate and the samples were incubated at 37° C. for at least 6 days. After passaging (0.05% Trypsin-EDTA; Invitrogen), the cells were plated in 12 multi-well plates in MEF medium (DMEM Medium+10% FBS+1% pen/strep) at a density of at least 50 k/cm^2. […] The cells were then collected between 6 and 36 h after synchronisation. The relative expression of Bmal1 was assessed by qPCR with Gapdh as housekeeping gene as described in Example 1 (Table 2: SEQ ID NO 5 and 6, and 1 5 and 2, respectively).

Series [3] relates to C57Bl/6 mice. Kind of series: Homecage spontaneous activity (cosinor, periodogram, detrended fluctuation analysis).
Experimental: The spontaneous activity of mice aged 1, 3, 5, and 12 mo (N=7-8/group) was recorded using the TraffiCage™ system (NewBehavior, Zurich, Switzerland). Briefly, the system consists of an array of radio frequency (RF) antennas placed under the cage with group-housed, freely moving mice. The antennas read the RFID tags and provide an approximate location of each animal with a time resolution of 20 ms. The time interval during which an animal is detected constantly by the same antenna is defined as a “visit.” When an animal changes location enough to be detected by another antenna, a new visit is recorded. Each visit is described by the start time and duration. For long recordings, the number of visits is virtually equal to the number of transitions, and can be used as activity count. The time series of visits are exported as ASCII files and analysed using custom routines developed in Matlab™ R2013b (The MathWorks™, Natick, Md., USA).
The mice were housed in a climate-controlled, isolated room for a period of 6 to 7 weeks, with minimal interactions with human experimenters (except for changing the cage and to replenish food and water, which occurred at random times throughout the experiment). The synchronisation of activity monitoring with the LD cycle was ensured by using a remote control device (TellStick™, Telldus Technologies AB, Lund, Sweden) operated by the computer running TraffiCage™ control software. To minimize the effects of novelty and possible interference from circadian rhythm entrainment, the baseline measurements were derived based on 3 LD cycles after an acclimation period of at least 3 LD cycles.
The analysis of circadian rhythmicity consisted of rhythmometry by means of cosinor analysis. […] We next analysed spontaneous activity by detrended fluctuation analysis (DFA). The method is based on linear regression analysis of the residual variance of the time series against the time scale used for detrending on double-logarithmic plots. The slope of a linear regression in double-logarithmic plot translates into a scaling exponent, and describes the long-term autocorrelation patterns embedded in the time series.
The next series relates to Per2 promoter. Kind of series: Luciferase reporter assay in Per2::Luc primary mouse fibroblasts after DEX synchronisation. The series is classed as cell-based. The following applies: 1 μM DEX single pulse. Here is the method: The generation of knock-in mice expressing firefly luciferase under the control of Per2 promoter (Per2::Luc) has been described previously (Yoo et al. 2004).
as §1, with “samples (about 0.25” for “samples (˜0.25”, “and Dex-exposed” for “and DEX-exposed”, “The number of photons emitted by each culture dish was counted over 1 minute every 10 min (time resolution: 6 data points/h). The time series” for “The cells”, “were further analyzed by means” for “were then collected between 6 and 36 h after synchronisation. The relative expression”, “of cosinor analysis” for “of Bmal1 was assessed by qPCR with Gapdh as housekeeping gene”, “Example 4.” for “Example 1 (Table 2: SEQ ID NO 5 and 6, and 1 5 and 2, respectively).”
In general terms: Reporter assays use an easily measured gene product as a stand-in for the process of interest.

For series [4], the system named is C57Bl/6 mice. Kind of series: Forced swim test (FST), depression-like behavior. The class given is in vivo, mouse. The following applies: for immobility time in FST after FLX treatment: 12 mo, FLX 80 mg/L in drinking water for 21 days. Here is the method: […]; Sigma-Aldrich, Sweden) from gestational day (GD) 14 until delivery. The delivery day was recorded as postnatal day (PND) 0. The litters were culled to 4 pups/litter at PND3. The pups were weighed at PND3, 7, 14, and 21. At weaning (PND21), the mice were implanted subcutaneously with sterile radio-frequency identification (RFID) tags (Trovan Unique 100A, Trovan Ltd., UK) under brief isoflurane anesthesia. The transponders allowed unambiguous identification of animals and were also used for monitoring the activity in homecage environment. After implantation, the pups were redistributed to new cages so that each cage would house a maximum of 5 mice originating from different litters, and the distribution was maintained throughout the study. The mice were kept in an animal facility under 12 h:12 h light-dark (LD) cycle (light intensity 50 lx; light on at 6 a.m.) at constant temperature (22±1° C.) and humidity (50%±5%). The circadian zeitgeber (“time-giver”) time (ZT) 0 corresponds to the subjective sunrise, i.e., the onset of the light phase.
Adult male mice aged 7 weeks, 3 mo, or 12 mo were tested for depression-like behavior in the forced swim tests (FST). Briefly, the animals were individually placed in glass cylinders (24 cm height, 12 cm diameter) filled with water (23.5° C.) to a depth of 16 cm. The animals were exposed to a 15 min pretest followed by a 6 min test 24 h later. Test sessions were videotaped and analysed offline by one investigator who was blind to the treatment and exposure conditions. Immobility was defined as passive floating for at least 2 s. After documenting depression-like behavior at the age of 12 mo, the animals were treated with fluoxetine (FLX; a selective serotonin re-uptake inhibitor antidepressant) dissolved in drinking water (80 mg/L) for 21 days before repeating the test. In addition to FST, depression-like behavior was tested in a tail-suspension test (TST), as described below.

A further series relates to mice. In words: MeHg model of developmental neurotoxicity, depression-like behavior. The class given is in vivo, mouse.
The test system of series [5] is hippocampal dentate gyrus. The conditions noted are these: chronic FLX; for effect of FLX treatment on neurogenesis: 12 mo.

On to `C[C@@H]1C[C@H]2[C@@H]3CCC4=CC(=O)C=C[C@]4(C)[C@@]3(F)[C@@H](O)C[C@]2(C)[C@@]1(O)C(=O)CO` [DEX, dexamethasone], for which the “depression-like phenotype in tail suspension test” value with C57Bl/6 mice [1] is “reconfirmed”. In addition, the “period of oscillations in clock gene mRNA expression after DEX synchronisation” value in the series on BMAL1, PER1 and PER2 is on record as “about 24 h”. Moreover, in series [2], the “levels of corticosterone metabolites in the feces vs controls” value was “lower levels”. In addition, in [2] (ZT1-2 vs ZT12-14), the “circadian fluctuations in GC secretion” value is “did not show significant circadian fluctuations”. Moreover, the “oscillations in Bmal1 expression vs control mice” value in the series with Bmal1 is on record as “attenuated oscillations”. Further, the “scaling coefficient of spontaneous activity (detrended fluctuation analysis)” value in the series with C57Bl/6 mice [3] (one DEX-exposed mouse (FIG. 6D), control mouse 0.82) is listed as 0.88. Besides, the “amplitude of circadian rhythm (cosinor), baseline vs forced synchronisation” value in the series on C57Bl/6 mice [3] (prenatal DEX exposure) is given as “no significant difference”. The “circadian period of spontaneous activity” value with C57Bl/6 mice [3] (prenatal DEX exposure, 12 months old, constant steady entrainment) is on record as “shorter”. For the same compound, the “amplitude of circadian rhythm (cosinor) at baseline vs controls” value in the series with C57Bl/6 mice [3] (prenatal DEX exposure, LD cycle baseline) is on record as “larger”. Also, the “scaling exponent, free-running vs circadian entrainment conditions” value with C57Bl/6 mice [3] (prenatal DEX exposure, all ages investigated) was “significant fluctuations”. In the series with C57Bl/6 mice [3] (prenatal DEX exposure, mice aged 3 mo and older), the “acrophase, baseline vs forced synchronisation” value is listed as “did not vary”. Also, the “time over which oscillations can be detected after initial DEX synchronisation” value in the series with Per2 promoter is on record as not above 10 days. Further, the “immobility time in FST vs controls” value in the series on C57Bl/6 mice [4] (prenatal DEX 0.05 mg/kg/day s.c. from GD14 until delivery, male offspring at 12 mo) is “increased”.

With `CNCCC(Oc1ccc(C(F)(F)F)cc1)c1ccccc1` (stereo not drawn) [FLX, fluoxetine], the “reversal of depression-like behavior by antidepressant treatment” value is reported as “reversed” in the series with mice (young adults (2-3 months)) and “not reversed” in the series on C57Bl/6 mice [4] (DEX model, middle-aged mice (12 months)). For the same compound, the “effect of FLX treatment on neurogenesis” value in series [5] (DEX-exposed mice) is “did not have any significant effect; also recorded: has no effect”; in series [5] (controls), “reduces”. For the same compound, the “number of DCX+ cells after FLX” value in series [5] (middle-aged controls) was “decreased”. The entries for the “immobility time in FST after FLX treatment” value in the series on C57Bl/6 mice [4] (DEX-exposed mice) and in the series on C57Bl/6 mice [4] (control mice) were “not altered” and “decreases”, respectively.

Take `[CH3][Hg][Cl]` [MeHg, methylmercury]: the “depression-like behavior after developmental exposure” value with mice was “detectable in young adults”.
